Assay results reported in patent publication US6555341B1, “Human theta subunit of the GABAa receptor” (Merck Sharp & Dohme Ltd., priority 1997, dated 2003).

Key:
[1] = target: T1, GABAA receptor subunit combination α2β1γ1 (Homo sapiens, UniProt P18505+P47869); experiment: Whole cell patch-clamp of HEK 293 cells transiently transfected with human GABA-A receptors, GABA concentration-response; assay type: cell-based; conditions: HEK 293 cells transiently expressing α2β1γ1; GABA concentration-response curve
T1 construct: expressed in transfected cells; host or cells: HEK 293 cells, transient, calcium phosphate precipitation
T1 sequence (P47869 29-451): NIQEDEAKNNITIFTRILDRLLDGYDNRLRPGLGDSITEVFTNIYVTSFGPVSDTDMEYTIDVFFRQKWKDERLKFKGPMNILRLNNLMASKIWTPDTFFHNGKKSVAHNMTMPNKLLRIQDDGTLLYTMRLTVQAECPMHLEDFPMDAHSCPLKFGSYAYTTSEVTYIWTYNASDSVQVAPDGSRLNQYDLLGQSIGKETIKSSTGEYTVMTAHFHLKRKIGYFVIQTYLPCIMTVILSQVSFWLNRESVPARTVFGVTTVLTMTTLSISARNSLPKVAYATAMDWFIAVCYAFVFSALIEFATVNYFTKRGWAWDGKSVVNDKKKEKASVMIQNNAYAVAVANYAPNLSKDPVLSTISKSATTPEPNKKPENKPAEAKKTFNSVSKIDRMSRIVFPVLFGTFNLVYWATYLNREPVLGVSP
T1 sequence (P18505 26-474): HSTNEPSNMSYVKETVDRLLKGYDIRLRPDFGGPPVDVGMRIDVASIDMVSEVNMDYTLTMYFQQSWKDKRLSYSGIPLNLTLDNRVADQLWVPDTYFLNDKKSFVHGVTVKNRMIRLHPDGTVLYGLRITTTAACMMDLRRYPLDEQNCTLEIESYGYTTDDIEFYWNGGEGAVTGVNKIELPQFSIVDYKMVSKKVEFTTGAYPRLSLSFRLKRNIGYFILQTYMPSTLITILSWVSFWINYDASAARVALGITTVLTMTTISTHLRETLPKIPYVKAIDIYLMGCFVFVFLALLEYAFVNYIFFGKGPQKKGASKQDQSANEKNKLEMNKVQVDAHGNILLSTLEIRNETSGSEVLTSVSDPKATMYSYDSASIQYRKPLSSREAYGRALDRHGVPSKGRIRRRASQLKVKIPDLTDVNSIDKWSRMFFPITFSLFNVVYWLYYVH
T1 sequence (Q8N1C3 36-465 partner): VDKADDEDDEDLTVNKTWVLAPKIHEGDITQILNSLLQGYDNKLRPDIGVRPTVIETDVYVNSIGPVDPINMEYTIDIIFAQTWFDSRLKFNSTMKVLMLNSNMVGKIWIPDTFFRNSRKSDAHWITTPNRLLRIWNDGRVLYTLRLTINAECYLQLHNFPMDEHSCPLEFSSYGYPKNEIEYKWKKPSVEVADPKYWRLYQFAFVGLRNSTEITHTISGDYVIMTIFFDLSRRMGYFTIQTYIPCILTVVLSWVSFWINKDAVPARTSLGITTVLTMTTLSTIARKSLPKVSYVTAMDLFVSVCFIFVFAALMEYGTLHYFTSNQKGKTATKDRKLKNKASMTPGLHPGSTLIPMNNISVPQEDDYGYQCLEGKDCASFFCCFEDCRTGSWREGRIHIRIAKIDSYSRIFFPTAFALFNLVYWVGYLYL
Experimental: (§1) Experiments were performed on HEK 293 cells transiently transfected with human cDNA combinations α2β1 γ1, and α2β1θγ1 (4 μgs of cDNA total per cover-slip) using calcium phosphate precipitation (Chen and Okayama, 1988) as previously described (Hadingham et al, 1993). Glass cover-slips containing the cells in a monolayer culture were transferred to a perspex chamber on the stage of Nikon Diaphot inverted microscope. Cells were continuously perfused with a solution containing 124 mM NaCl, 2 mM KCl, 2 mM CaCl2, 1 mM MgCl2, 1.25 mM KH2PO4, 25 mM NaHCO3, 11 mM D-glucose, at pH 7.2, and observed using phase-contrast optics. Patch-pipettes were pulled with an approximate tip diameter of 2 μm and a resistance of 4MΩ with borosilicate glass and filled with 130 mM CsCl, 10 mM HEPES, 10 mM EGTA, 3 mM Mg^+-ATP, pH adjusted to 7.3 with CsOH. Cells were patch-clamped in whole-cell mode using an Axopatch 200B patch-clamp amplifier. Drug solutions were applied by a double-barrelled pipette assembly, controlled by a stepping motor attached to a Prior manipulator, enabling rapid equilibration around the cell. […] Curves were fitted using a non-linear square-fitting program to the equation f(x)=BMAX/[1+(EC50/x)^n] where x is the drug concentration, EC50 is the concentration of drug eliciting a half-maximal response and n is the Hill coefficient. EC50's were analysed by unpaired students t-test.

[2] = target: T2, GABAA receptor subunit combination α2β1θγ1 (Homo sapiens, UniProt P18505+P47869+Q9UN88); experiment: as above; assay type: cell-based; conditions: HEK 293 cells transiently expressing α2β1θγ1; GABA concentration-response curve
T2 construct: expressed in transfected cells; host or cells: HEK 293 cells, transient, calcium phosphate precipitation
Experimental: as §1

T2 sequence (Q9UN88 22-632, one chain of several): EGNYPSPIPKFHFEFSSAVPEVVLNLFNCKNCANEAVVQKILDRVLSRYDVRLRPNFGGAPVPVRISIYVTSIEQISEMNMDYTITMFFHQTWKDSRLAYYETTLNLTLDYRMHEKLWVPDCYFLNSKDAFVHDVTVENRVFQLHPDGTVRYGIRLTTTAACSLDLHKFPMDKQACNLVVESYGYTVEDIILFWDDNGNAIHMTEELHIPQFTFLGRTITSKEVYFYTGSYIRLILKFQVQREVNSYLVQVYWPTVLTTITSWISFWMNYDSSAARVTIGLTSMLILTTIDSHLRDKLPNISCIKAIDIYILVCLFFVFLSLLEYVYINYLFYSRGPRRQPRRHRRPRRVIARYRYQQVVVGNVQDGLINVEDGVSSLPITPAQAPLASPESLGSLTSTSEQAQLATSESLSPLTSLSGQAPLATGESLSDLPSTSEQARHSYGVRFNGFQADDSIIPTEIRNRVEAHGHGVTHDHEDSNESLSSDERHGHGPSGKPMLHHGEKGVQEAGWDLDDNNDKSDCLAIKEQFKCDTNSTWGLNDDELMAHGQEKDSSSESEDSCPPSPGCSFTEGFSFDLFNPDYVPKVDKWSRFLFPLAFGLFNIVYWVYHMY

- Slope (Hill coefficient) [1]: 1.6 ± 0.2
- Slope (Hill coefficient) [2]: 1.5 ± 0.1
SMILES: NCCCC(=O)O [GABA, Gamma-amino butyric acid]
